Data: patent publication US20080248503A1, “Methods of Screening Compounds to Predict Toxicity and Residual Proliferative and Differentiation Capacity of the Lympho-Hematopoietic System” (priority 2005, published 2008)
Read-outs that look alike come from different tables or passages of the source.

Columns and labels:
[1] = tested on: human PBMNCs cultured under BFU-E-stimulating conditions; assay: HALO cell proliferation (luminescence) of PBMNCs under BFU-E-stimulating conditions; assay type: cell-based; details: days 3 and 7
Method: Fresh human PBMNCs were cultured under BFU-E-stimulating conditions, together with 3 concentrations of DOX, namely 1 ng/ml (low), 10 ng/ml (medium) and 100 ng/ml (high) as per a typical HALO test procedure. Replicate plates were used so that the effects of DOX could be examined at 2 time points, namely days 3 and 7. At each time point, using the APOGLOW™ detection kit (Cambrex BioScience), ATP releasing reagent and ATP luminescence-monitoring reagent were added and the luminescence read immediately. A second luminescence reading was taken when the nadir ATP value occurred. At this point an ADP converting reagent (ADP-CR) was then added, which converts ADP to ATP and the luminescence measured when the conversion reached a plateau. From these 3 measurements ADP-.ATP ratio was determined. FIG. 15A and 15B show the mean RLU values for each of the DOX concentrations measured at the 2 time points. […] On day 3, the increase in ADP:ATP ratio is due to apoptosis of cells with low proliferative capacity.

[2] = tested on: human PBMNCs cultured under BFU-E-stimulating conditions; assay: HALO apoptosis measurement (ADP:ATP ratio) of PBMNCs under BFU-E-stimulating conditions; assay type: cell-based
Method: Fresh human PBMNCs were cultured under BFU-E-stimulating conditions, together with 3 concentrations of DOX, namely 1 ng/ml (low), 10 ng/ml (medium) and 100 ng/ml (high) as per a typical HALO test procedure. Replicate plates were used so that the effects of DOX could be examined at 2 time points, namely days 3 and 7. At each time point, using the APOGLOW™ detection kit (Cambrex BioScience), ATP releasing reagent and ATP luminescence-monitoring reagent were added and the luminescence read immediately. A second luminescence reading was taken when the nadir ATP value occurred. At this point an ADP converting reagent (ADP-CR) was then added, which converts ADP to ATP and the luminescence measured when the conversion reached a plateau. From these 3 measurements ADP-.ATP ratio was determined. FIG. 15A and 15B show the mean RLU values for each of the DOX concentrations measured at the 2 time points. […]
Cell proliferation and apoptosis can actually be performed in a single read by performing HALO as described above, but then instead of measuring only ATP, adenosine diphosphate (ADP) is also measured, as shown in FIGS. 15 and 16. […]
In the HALO methods that form the basis of the kits of the present invention, ATP is released from the cells using ATP releasing reagent and a 15 min incubation. Thereafter, the ATP luminescence-monitoring reagent is added and the plates read immediately. […]

[3] = tested on: mouse hematopoietic lineages; assay type: cell-based
Method: (§1) To calculate the quantities of reagents required: • 1.
(§2) (See (iv) Adhesive Plate Covering Film above). • 3. […] Repeat this procedure a total of 4 times. Mixing is very important. • 4.
(§3) Luminescence is measured in relative luminescence units or RLU.

[4] = tested on: human hematopoietic lineages; assay: HALO 7-population hemotoxicology, human hematopoietic lineages; assay type: cell-based
Method: as §1, §2, §3

mouse HPP-SP = tested on: mouse HPP-SP
Excerpt: (§4) Depending on the type and size of the HALO kit used, all of the culture components required, with the exception of the cells, are included. A typical HALO kit contains the 3 component mixes required to culture cells: • 1. Serum component mix (Mix 1): contains fetal bovine serum (FBS), bovine serum albumin (BSA), transferring and insulin. • 2. Methyl cellulose mix (Mix 2): contains methylcellulose and alph-thioglycerol. • 3. Growth factor mix (Mix 3): contains the type and number of growth factors depending on the cell population being stimulated. • 4. Target cells as prepared in step 1 above: different cell types are available from peripheral blood, bone marrow, or umbilical cord blood (humans) procured from human, non-human primate, dog, rat, or mouse. • Methyl cellulose provided: Methyl cellulose is a viscous, water soluble, semi-solid medium for immobilizing cells. The amount of methyl cellulose provided is for the number of 96-well plates determined by the kit. However, if dispensed carefully, there is sufficient methyl cellulose so that several smaller experiments can be performed using the plate(s) provided. • Dispensing individual component mixes and reagents: A repeater pipette may be used which uses a positive-displacement syringe is used to dispense the methyl cellulose mix. • Dispensing the master mix: Once all the component mixes have been added together, use a repeater pipette to dispense the master mix into individual wells. Using normal syringes with needles may result in inaccurate dispensing and greater variation between replicate wells. • Number of replicates performed: At least 4 replicates per culture point are preferred. Plate configuration: The configuration of the 96-well plate for an experiment is arbitrary. However, the number of replicates and the way in which the reagents required to measure luminescence are added, will determine the plate configuration. For example, if performing 4 or 8 replicates per culture point, we recommend configuring the plate in columns, that is, A1 to DI and EI to HI etc. for quadruplicate cultures and A1 to HI, A2 to 112 etc. for 8-replicate cultures are possible. If performing 6 or 12 replicates, we recommend configuring the plate, in rows, that is, A1-A6 and A7 to A12 for 6 replicates and A1-A12, BL to—813 for 12 replicates are possible. If performing column replicates, addition of the ATP releasing reagent and ATP luminescence-monitoring reagent can be performed using an 8-channel pipette from left to right across the plate. If performing row replicates, an 8- or 12-channel pipette can be used to dispense the reagents from the top to the bottom of the plate. To calculate the quantities of reagents required: • 1. Determine the-number of sample categories required for testing and the number of replicates for each sample. • 2. Multiply the number of sample categories by the number of replicates to obtain the number of wells to be used.
(§5) Before adding the target cells, ensure that a single cell suspension has been prepared. • 6. Mix the contents of the tube vigorously to obtain a homogenous master mix. • 7. To ensure that as little master mix as possible remains on the walls of the tube perform a quick spin in a centrifuge to 500 rpm and then let the centrifuge spin down. […] Dispense 100 μl of the reagent master mix into each of the replicate wells. This can be performed with a syringe and needle, but a repeater pipette is recommended for ease of use, reproducibility and to reduce variation. • 9. Transfer the culture plate to a 37 Celsius, fully humidified incubator with an atmosphere of 5% CO2. If possible, use an incubator gassed with 95% nitrogen in order to reduce the atmospheric oxygen concentration of 5% O2 since this helps increase the plating efficiency. • 10.
(§6) The addition of ATP releasing reagent and ATP luminescence-monitoring reagent is performed is the same manner as that for ATP. • 1.

[5] = tested on: lymphopoietic cell populations
Excerpt: as §4, §5, §6

human CFC-GEMM = tested on: human CFC-GEMM
Excerpt: as §4, §5, §6

human HPP-SP = tested on: human HPP-SP
Excerpt: as §4, §5, §6

mouse CFC-GEMM = tested on: mouse CFC-GEMM
Excerpt: as §4, §5, §6

mouse T-CFC = assay: HALO 7-population hemotoxicology, mouse T-CFC; assay type: cell-based
Method: as §1, §2, §3

HPP-SP stem cells = assay: HALO 7-population hemotoxicology, HPP-SP; assay type: cell-based; details: species not stated
Method: as §1, §2, §3

BFU-E = assay: HALO 7-population hemotoxicology, BFU-E (erythropoietic lineage); assay type: cell-based
Method: as §1, §2, §3

CFC-GEMM stem cells = assay: HALO 7-population hemotoxicology, CFC-GEMM; assay type: cell-based; details: species not stated
Method: as §1, §2, §3

[6] = tested on: progenitor cell populations; assay: HALO 7-population hemotoxicology, progenitor cell populations (hematopoietic lineages); assay type: cell-based
Method: as §1, §2, §3

[7] = tested on: primitive and mature stem cell populations; assay: HALO 7-population hemotoxicology, primitive and mature stem cell populations; assay type: cell-based; details: FIG. 17A
Method: as §1, §2, §3

mouse B-CFC = assay: HALO 7-population hemotoxicology, mouse B-CFC; assay type: cell-based
Method: as §1, §2, §3

COc1cccc2c1C(=O)c1c(O)c3c(c(O)c1C2=O)C[C@@](O)(C(=O)CO)C[C@@H]3O[C@H]1C[C@H](N)[C@H](O)[C@H](C)O1 [DOX, doxorubicin]
effect on mean RLU (luminescence) ([1]; 1 ng/ml (low)): little or no effect
effect on mean RLU (luminescence) ([1]; 10 ng/ml (medium)): decrease the luminescence
effect on mean RLU (luminescence) ([1]; 100 ng/ml (high)): decrease the luminescence
effect on ADP:ATP ratio ([2]; day 3): increase
apoptosis of BFU-E and immediate progeny ([2]; day 7): induced into apoptosis

[Cl][Cd][Cl] [cadmium chloride]
effect on mouse hematopoietic lineages [3]: decrease
effect on human hematopoietic lineages [4]: decrease
effect on mouse HPP-SP (mouse HPP-SP; mouse): decrease
effect on lymphopoietic cells / lymphopoietic lineages ([5]; T-CFC & B-CFC): decrease
effect on human CFC-GEMM (human CFC-GEMM; human): decrease
effect on human HPP-SP (human HPP-SP; human): decrease
effect on mouse CFC-GEMM (mouse CFC-GEMM; mouse): no effect

CN(C)C=O [N,N-dimethylformamide]
effect on mouse T-CFC (mouse T-CFC): stimulation
effect on mouse hematopoietic lineages [3]: effected
effect on mouse HPP-SP (mouse HPP-SP; mouse): stimulated
effect on human HPP-SP (human HPP-SP; human): effected

O=C(N[C@H](CO)[C@H](O)c1ccc([N+](=O)[O-])cc1)C(Cl)Cl [chloramphenicol]
effect on HPP-SP stem cells (HPP-SP stem cells): Stimulation
effect on erythroid elements (BFU-E; erythropoietic lineage): decrease
effect on BFU-E (BFU-E; species not stated): specifically inhibited
effect on CFC-GEMM stem cells (CFC-GEMM stem cells): no effect
effect on lymphopoietic cells / lymphopoietic lineages ([5]; T-CFC & B-CFC): stimulation

c1ccccc1 [benzene]
effect on CFC-GEMM stem cells (CFC-GEMM stem cells): acts at the CFC-GEMM level
effect on progenitor cells / hematopoietic lineages [6]: hematopoietic suppression

CCn1cc(C(=O)O)c(=O)c2ccc(C)nc21 [naladixic acid]
effect on stem cells [7]: No demonstrable effect
effect on lymphopoietic cells / lymphopoietic lineages ([5]; T-CFC & B-CFC): No demonstrable effect
effect on progenitor cells / hematopoietic lineages [6]: No demonstrable effect

Nc1ccc(N)cc1 [p-phenelenediamine]
effect on mouse T-CFC (mouse T-CFC): decrease
effect on mouse B-CFC (mouse B-CFC): decrease
effect on mouse HPP-SP (mouse HPP-SP; mouse): decrease

[Na+].[Na+].[O]=[Cr](=[O])([O-])[O][Cr](=[O])(=[O])[O-] [sodium dichromate]
effect on mouse HPP-SP (mouse HPP-SP): inhibited
effect on lymphopoietic cells / lymphopoietic lineages [5]: inhibition
effect on human CFC-GEMM (human CFC-GEMM): inhibited
effect on human HPP-SP (human HPP-SP): inhibited
effect on mouse CFC-GEMM (mouse CFC-GEMM): inhibited
effect on progenitor cells / hematopoietic lineages [6]: inhibition
